Measurements taken from patent US20240226228A1, “ANTIMICROBIAL PEPTOID HAVING IMPROVED SELECTIVITY AND ANTIMICROBIAL COMPOSITION COMPRISING SAME” (priority 2021, published 2024).
Where a SMILES comes first, the peptide text is derived from it. [ ]: non-standard residue; d: D form. Gly(N(CH2)2(3-indolyl)) = O=C(O)CNCCc1c[nH]c2ccccc12; Nspe = C[C@H](NCC(=O)O)c1ccccc1; Nlys = NCCCCNCC(=O)O

system: red blood cells; test: Hemolysis assay; type: cell-based, Sprague-Dawley mouse
Experimental: To confirm cytotoxicity by the hemolytic activity of each peptoid synthesized in Example 1, hemolysis analysis was performed. The used blood was collected from a 13-week-old male Sprague-Dawley […] in a tube containing 158 UPS sodium heparin for preventing coagulation, and centrifuged at 4° C. for 10 minutes at 1,000 rpm. Afterward, the plasma was carefully removed, red blood cells were washed with phosphate-buffered saline (PBS: a mixed solution of 35 mM phosphate-buffered solution/150 mM NaCl, pH 7.4) three times and centrifuged at 1,000 rpm for 10 minutes. A 10% (v/v) red blood cell solution diluted in PBS was dispensed at 150 μL into a 96-well plate (microtiter plate), a peptoid solution was added at 50 μL, and 1% Triton X-100 was added. Afterward, the red blood cells were incubated at 37° C. for 1 hour, and the incubated 96-well plate was centrifuged at 1,000 rpm for 15 minutes. A supernatant was obtained and transferred to a new 96-well plate at 150 μL, and absorbance was measured using a spectrophotometer at 540 nm. Percent hemolysis may be calculated by the following Equation 1, and the corresponding results are shown in Tables 11 to 13. % Hemolysis=(A−C)/(B−C)×100 [Equation 1] In Equation 1, A is the absorbance of the peptoid solution at 540 nm, B is the absorbance of the 0.1% Triton X-100 at 540 nm, and C is the absorbance of the PBS solution at 540 nm.

Compound | HC10 [µM] | HC50 [µM] | Hmax (100 μM) [%]
C[C@@H](c1ccccc1)N(CC(N)=O)C(=O)CN(C(=O)CN(CCCCN)C(=O)CN(C(=O)CN(C(=O)CN(CCCCN)C(=O)CN(C(=O)CN(C(=O)CN(CCCCN)C(=O)CN(C(=O)CN(C(=O)CN(CCCCN)C(=O)CNCCc1c[nH]c2ccccc12)[C@@H](C)c1ccccc1)[C@@H](C)c1ccccc1)[C@@H](C)c1ccccc1)[C@@H](C)c1ccccc1)[C@@H](C)c1ccccc1)[C@@H](C)c1ccccc1)[C@@H](C)c1ccccc1 [Peptoid 3] | 6.3 | 13.9 | 100.5 ± 9.9
C[C@@H](c1ccccc1)N(CC(=O)N(CCCCN)CC(=O)N(CC(=O)N(CC(=O)N(CCCCN)CC(=O)N(CC(=O)N(CC(=O)N(CCCCN)CC(=O)N(CC(=O)N(CC(=O)N(CCCCN)CC(=O)N(CCCCN)CC(N)=O)[C@@H](C)c1ccccc1)[C@@H](C)c1ccccc1)[C@@H](C)c1ccccc1)[C@@H](C)c1ccccc1)[C@@H](C)c1ccccc1)[C@@H](C)c1ccccc1)C(=O)CNCCc1c[nH]c2ccccc12 [Peptoid 64] (H-[Gly(N(CH2)2(3-indolyl))][Nspe][Nlys][Nspe][Nspe][Nlys][Nspe][Nspe][Nlys][Nspe][Nspe][Nlys][Nlys]-NH2) | 70.7 | > 100 | 18.9 ± 2.9
C[C@@H](c1ccccc1)N(CC(=O)N(CCCCN)CC(=O)N(CC(=O)N(CC(=O)N(CCCCN)CC(=O)N(CC(=O)N(CC(=O)N(CCCCN)CC(=O)N(CC(=O)N(CC(=O)N(CCc1c[nH]c2ccccc12)CC(N)=O)[C@@H](C)c1ccccc1)[C@@H](C)c1ccccc1)[C@@H](C)c1ccccc1)[C@@H](C)c1ccccc1)[C@@H](C)c1ccccc1)[C@@H](C)c1ccccc1)C(=O)CN(C(=O)CN(CCCCN)C(=O)CNCCc1c[nH]c2ccccc12)[C@@H](C)c1ccccc1 [Peptoid 5] (H-[Gly(N(CH2)2(3-indolyl))][Nlys][Nspe][Nspe][Nlys][Nspe][Nspe][Nlys][Nspe][Nspe][Nlys][Nspe][Nspe][Gly(N(CH2)2(3-indolyl))]-NH2) | < 6.3 | 15.3 | 108.1 ± 2.7
C[C@@H](c1ccccc1)N(CC(=O)N(CCCCN)CC(=O)N(CC(=O)N(CC(=O)N(CCCCN)CC(=O)N(CC(=O)N(CC(=O)N(CCCCN)CC(=O)N(CC(=O)N(CC(=O)N(CCc1c[nH]c2ccccc12)CC(N)=O)[C@@H](C)c1ccccc1)[C@@H](C)c1ccccc1)[C@@H](C)c1ccccc1)[C@@H](C)c1ccccc1)[C@@H](C)c1ccccc1)[C@@H](C)c1ccccc1)C(=O)CN(C(=O)CNCCCCN)[C@@H](C)c1ccccc1 [Peptoid 4] (H-[Nlys][Nspe][Nspe][Nlys][Nspe][Nspe][Nlys][Nspe][Nspe][Nlys][Nspe][Nspe][Gly(N(CH2)2(3-indolyl))]-NH2) | < 6.3 | 6.7 | 103.2 ± 0.9
C[C@@H](c1ccccc1)N(CC(N)=O)C(=O)CN(C(=O)CN(CCCCN)C(=O)CN(C(=O)CN(C(=O)CN(CCCCN)C(=O)CN(C(=O)CN(C(=O)CN(CCCCN)C(=O)CN(C(=O)CN(CCCCN)C(=O)CN(CCCCN)C(=O)CN(CCc1c[nH]c2ccccc12)C(=O)CNCCc1c[nH]c2ccccc12)[C@@H](C)c1ccccc1)[C@@H](C)c1ccccc1)[C@@H](C)c1ccccc1)[C@@H](C)c1ccccc1)[C@@H](C)c1ccccc1)[C@@H](C)c1ccccc1 [Peptoid 36] | 15.3 | 39.4 | 89.1 ± 3.4
C[C@@H](c1ccccc1)N(CC(N)=O)C(=O)CN(C(=O)CN(CCCCN)C(=O)CN(C(=O)CN(CCCCN)C(=O)CN(CCCCN)C(=O)CN(C(=O)CN(C(=O)CN(CCCCN)C(=O)CN(C(=O)CN(C(=O)CN(CCCCN)C(=O)CN(CCc1c[nH]c2ccccc12)C(=O)CNCCc1c[nH]c2ccccc12)[C@@H](C)c1ccccc1)[C@@H](C)c1ccccc1)[C@@H](C)c1ccccc1)[C@@H](C)c1ccccc1)[C@@H](C)c1ccccc1)[C@@H](C)c1ccccc1 [Peptoid 35] | 20.4 | 63.0 | 82.6 ± 3.2
